According to US8809304B2, “Amine compound and use thereof for medical purposes” (Mitsubishi Tanabe Pharma Corporation, priority 2005, dated 2014):
Where a name gives a salt, the structure may show the parent alone.

test system: not listed separately; test: Effect on heart rate in rat telemetry; assay type: in vivo, Sprague-Dawley (IGS) rats; settings: orally administered, up to the dose of 30 mg/kg body weight, measured from 24 hr before to 72 hr after administration
Protocol: Effect on Heart Rate in Rat Telemetry
Male Sprague-Dawley (IGS) rats were anesthetized by intraperitoneal administration of Nembutal (manufactured by DAINIPPON PHARMACEUTICAL CO., LTD.), a pressure sensor connected to a telemetry transmitter (TL11M2-C50-PTX, manufactured by Data Sciences International) was inserted into the abdominal artery, and the transmitter was subcutaneously dwelled in the abdomen. The data of blood pressure and heart rate were recorded by an analysis soft (Dataquest A.R.T., Data Science) via a receiver (RPC-1, manufactured by Data Sciences International). When 10 days to 2 weeks elapsed from the surgery, recovery of heart rate circadian rhythm was confirmed, and the rats were subjected to the experiment. The compound of the present invention was suspended in 0.5% hydroxypropylmethylcellulose (manufactured by Shin-Etsu Chemical Co., Ltd.) and orally administered. The heart rate was measured from 24 hr before the administration to 72 hr after the administration.

Row | Structure (SMILES) | effect on heart rate of the rat
1 | CCCCCCCOc1ccc(CCC(N)(CO)CO)cc1C(F)(F)F.Cl [compound 1-3, 2-amino-2-[2-(4-heptyloxy-3-trifluoromethylphenyl)ethyl]propane-1,3-diol Hydrochloride] | did not affect the heart rate

test system: peripheral blood lymphocyte count; test: Evaluation of peripheral blood lymphocyte count-decreasing effect in mice; assay type: in vivo; settings: male BALB/cAnNCrj mice, intraperitoneally administered, 24 hr after administration

Row | Structure (SMILES) | mouse peripheral blood lymphocyte count-decreasing effect, ED50 value (dose necessary for 50% reduction of the lymphocyte count of vehicle group as 100%) [mg/kg body weight]
2 | CCCCCCCOc1ccc(CCC(N)(CO)CO)cc1C.Cl [comparison compound 1-7, 2-amino-2-[2-(4-heptyloxy-3-methylphenyl)ethyl]propane-1,3-diol Hydrochloride, reference compound] | 0.64
3 | CCCCCCCOc1ccc(CCC(N)(CO)CO)cc1C(F)(F)F.Cl [compound 1-3, 2-amino-2-[2-(4-heptyloxy-3-trifluoromethylphenyl)ethyl]propane-1,3-diol Hydrochloride] | 0.04
4 | CCCCCCCOc1ccc(CCC(C)(N)CO)cc1C(F)(F)F.Cl (stereo not drawn) [compound 13-6, 2-amino-4-(4-heptyloxy-3-trifluoromethylphenyl)-2-methylbutanol Hydrochloride] | 0.02
5 | CCCCCCCOc1ccc(CC[C@@](C)(N)CO)cc1C(F)(F)F.Cl [compound 15-3, (R)-2-amino-4-(4-heptyloxy-3-trifluoromethylphenyl)-2-methylbutanol Hydrochloride] | 0.02
6 | CCCCCCCOc1ccc(/C=C/C(N)(CO)CO)cc1C(F)(F)F [compound 28-6, (E)-2-amino-2-[2-(4-heptyloxy-3-trifluoromethylphenyl)vinyl]propane-1,3-diol Hydrochloride] | 0.03
